These are literature values, as cited in patent US8466103B2, “Exendin polypeptide linked to biotin, method for the preparation thereof and pharmaceutical composition comprising the same” (B&L Delipharm, Corp., priority 2008, dated 2013).

The data set addresses Na-dependent multivitamin transport system. The note with it: small intestines; read-out: Affinity constant of the transport system for biotin; cited from earlier work.

`O=C(O)CCCC[C@@H]1SC[C@@H]2NC(=O)N[C@@H]21` [biotin]: the Kd is about 2.6 nM.
